Results as given in patent publication US20040209318A1, “Reagents and methods for the detection and quantification of vancomycin in bilogical fluids” (priority 1995, published 2004).

Target: anti-vancomycin Fab fragment
Test: BIAcore solution competition, equilibrium dissociation constant
Type: binding, mouse
Conditions: in solution, 20 nM Fab fragment; read-out: Equilibrium Dissociation Constant (KD)
Protocol: Biosensor surfaces were regenerated after each injection with successive 1 minute pulses of 6 M, 6M, and 1.5 M guanidine hydrochloride. Initial rates of binding of anti-vancomycin Fab fragment to the biosensor surface were measured over a 15 second window beginning 20 seconds postinjection. Data was evaluated by non-linear regression analysis using the solution affinity model built into BIAevaluation 3.0 software (BIAcore, Inc).
The binding affinities of several vancomycin analogs and tracers for anti-vancomycin Fab fragment were determined from solution competition experiments carried out on a BIAcore 2000. Initially, known concentrations of anti-vancomycin Fab fragment (0-22 nM) were injected over the aminoalkyl vancomycin biosensor surface. The initial rate of binding for each anti-vancomycin Fab fragment concentration was obtained by averaging the observed binding rate over a […] window beginning 20 seconds post injection. Data from the first 20 seconds of each sensorgram were omitted due to sample dispersion effects at the start of injections. A plot of initial binding rate versus concentration of anti-vancomycin Fab fragment was fit using a 4-parameter logistic (general model in BIAevaluation 3.0) providing a standard curve. […] A fixed concentration of anti-vancomycin Fab fragment (20 nM) was then mixed with twelve concentrations of each vancomycin analog or tracer and allowed to reach equilibrium. The equilibrium mixtures were individually injected over the aminoalkyl vancomycin biosensor surface, and the concentration of free anti-vancomycin Fab fragment remaining was quantitated by determination of the initial rate of binding to the biosensor surface as described above. A plot of free anti-vancomycin Fab fragment versus total concentration of added analog or tracer provides a competition curve. […] The data points represent the experimentally determined concentrations of free anti-vancomycin Fab fragment in equilibrium solutions at a given concentration of soluble analog or tracer. The curves represent the best nonlinear fit of the data using equation 1 (solution affinity model in BIAevaluation software) below: [formula]
where Fabτ is the concentration of free anti-vancomycin Fab fragment in equilibrium solutions, Fabτ is the total concentration of anti-vancomycin Fab fragment in solution (20 nM), A is the total concentration of added vancomycin analog or tracer, and KD is the equilibrium dissociation constant for the binding of the vancomycin analog or tracer to anti-vancomycin Fab fragment in solution.

| Kd | Molecule |
| --- | --- |
| 87 ± 4 nM | Ring-2 dechlorovancomycin [compound 8] |
| ≤ 0.2 nM | N-acetylvancosaminylvancomycin [compound 7] |

| Molecule | Kd |
| --- | --- |
| CN[C@H](CC(C)C)C(=O)N[C@H]1C(=O)N[C@@H](CC(N)=O)C(=O)N[C@H]2C(=O)N[C@H]3C(=O)N[C@H](C(=O)N[C@H](C(=O)O)c4cc(O)cc(O)c4-c4cc3ccc4O)[C@H](O)c3ccc(c(Cl)c3)Oc3cc2cc(c3O[C@@H]2O[C@H](CO)[C@@H](O)[C@H](O)[C@H]2O)Oc2ccc(cc2Cl)[C@H]1O [compound 5, Desvancosaminylvancomycin] | 587 ± 27 nM |
